Test results taken from patent US12054498B2, “Heteroaromatic macrocyclic ether chemotherapeutic agents” (Nuvalent, Inc., priority 2020, dated 2024).

Assays:
[1] = molecular target: T1, Ba/F3 cells EML4-ALK L1196M/G1202R (variant 1) (Homo sapiens, UniProt Q9UM73, G1202R/L1196M); assay: Ba/F3 cell proliferation assay, EML4-ALK L1196M/G1202R (variant 1); format: cell-based; conditions: 72 hours, CellTiter-Glo
T1 construct: echinoderm microtubule-associated protein-like 4 (EML4) gene and the ALK tyrosine kinase domain; host or cells: Ba/F3 (RIKEN), retroviral pMSCV-puro; the other entry of the earlier key: EML4 (Q9HC35, Echinoderm microtubule-associated protein-like 4)
T1 sequence (Q9UM73 with tags, fused parts or gaps L1196M/G1202R): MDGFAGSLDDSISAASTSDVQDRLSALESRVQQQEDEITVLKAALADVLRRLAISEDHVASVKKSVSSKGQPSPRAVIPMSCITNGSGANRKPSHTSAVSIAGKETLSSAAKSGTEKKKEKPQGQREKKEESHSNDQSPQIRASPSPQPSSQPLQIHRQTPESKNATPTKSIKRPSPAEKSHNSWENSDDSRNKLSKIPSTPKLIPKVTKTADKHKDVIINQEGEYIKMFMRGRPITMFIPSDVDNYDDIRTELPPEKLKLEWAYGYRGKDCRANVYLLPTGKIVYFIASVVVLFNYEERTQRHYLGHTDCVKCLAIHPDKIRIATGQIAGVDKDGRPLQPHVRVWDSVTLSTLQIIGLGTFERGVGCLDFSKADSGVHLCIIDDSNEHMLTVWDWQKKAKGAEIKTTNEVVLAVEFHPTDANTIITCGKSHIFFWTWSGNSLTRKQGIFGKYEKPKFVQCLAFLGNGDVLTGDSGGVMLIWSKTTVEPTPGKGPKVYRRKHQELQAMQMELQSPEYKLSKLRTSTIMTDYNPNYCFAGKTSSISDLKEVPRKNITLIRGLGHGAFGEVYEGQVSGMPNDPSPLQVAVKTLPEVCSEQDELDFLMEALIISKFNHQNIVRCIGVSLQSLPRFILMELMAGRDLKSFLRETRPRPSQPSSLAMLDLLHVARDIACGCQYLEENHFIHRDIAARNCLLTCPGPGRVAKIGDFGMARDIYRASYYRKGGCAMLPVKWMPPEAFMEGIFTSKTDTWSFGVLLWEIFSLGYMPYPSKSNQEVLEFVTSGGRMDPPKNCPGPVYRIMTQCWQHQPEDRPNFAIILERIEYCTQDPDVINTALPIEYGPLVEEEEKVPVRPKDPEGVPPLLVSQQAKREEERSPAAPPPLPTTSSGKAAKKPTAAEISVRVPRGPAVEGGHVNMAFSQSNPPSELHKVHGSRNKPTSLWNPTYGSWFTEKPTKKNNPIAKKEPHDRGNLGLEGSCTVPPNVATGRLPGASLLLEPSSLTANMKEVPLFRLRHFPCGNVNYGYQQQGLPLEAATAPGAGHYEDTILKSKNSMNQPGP
In short: (§1)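 Luminescence from CellTiter-Glo after 72 hours of compound exposure measured viability of IL-3-independent Ba/F3 cells carrying the retrovirally introduced fusion. Cells were plated at 1,000 per well one day before 3-fold serial dilutions were added. IC50 values came from four-parameter logistic regression.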

[2] = molecular target: T2, TRKA-wt (Homo sapiens, UniProt P04629); assay: Biochemical kinase assay, TRKA-wt kinase domain; conditions: apparent inhibitory constant, Morrison equation; ATP 2 mM in substrate solution; read-out: TRKA-wt Ki^app
T2 construct: or TRKA-wt (1 nM, BPS Bio, 40280) kinase domains in buffer; purchased BPS Bio 40280
T2 sequence (P04629 510-781 limits assumed): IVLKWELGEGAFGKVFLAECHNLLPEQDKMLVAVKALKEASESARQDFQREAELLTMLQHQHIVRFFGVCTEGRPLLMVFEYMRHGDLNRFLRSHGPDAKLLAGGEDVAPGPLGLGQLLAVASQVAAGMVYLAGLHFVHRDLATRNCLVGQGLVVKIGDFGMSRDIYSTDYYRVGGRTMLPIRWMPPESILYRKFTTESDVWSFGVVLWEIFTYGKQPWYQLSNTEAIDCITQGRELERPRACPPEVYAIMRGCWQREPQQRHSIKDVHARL
In short: (§2)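 Kinase domains (in kinase solution: ROS1-G2032R 0.5 nM, ROS1-wt 0.6 nM, TRKA 1 nM, ALK L1196M/G1202R 3 nM) were mixed with compound and a substrate solution of 2 mM ATP plus 26 μM fluorogenic AQT0101 (ALK, ROS1) or AQT0104 (TRKA) in HEPES pH 7.5/MgCl2. Fluorescence was followed for 120 min at 30° C; Ki^app was obtained by Morrison fit of initial rates.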

[3] = molecular target: T3, ROS1-G2032R (Homo sapiens, UniProt P08922, G2032R); assay: Biochemical kinase assay, ROS1-G2032R kinase domain; conditions: apparent inhibitory constant, Morrison equation; ATP 2 mM in substrate solution; read-out: ROS1-G2032R Ki^app
T3 construct: purchased SignalChem R14-12BG
T3 sequence (P08922 1945-2222 G2032R limits assumed): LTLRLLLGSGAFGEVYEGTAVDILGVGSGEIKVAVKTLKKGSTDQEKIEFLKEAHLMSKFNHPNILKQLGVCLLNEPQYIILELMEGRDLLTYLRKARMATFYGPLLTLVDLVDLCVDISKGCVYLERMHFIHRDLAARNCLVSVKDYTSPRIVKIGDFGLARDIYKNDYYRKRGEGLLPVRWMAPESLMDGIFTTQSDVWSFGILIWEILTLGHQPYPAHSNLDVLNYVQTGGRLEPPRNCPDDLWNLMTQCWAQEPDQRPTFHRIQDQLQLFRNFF
In short: (§3)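 Compounds, as 100-fold DMSO stocks, were dispensed first, then substrate mix was added (ATP 2 mM, AQT0101 26 μM, in 50 mM HEPES pH 7.5/10 mM MgCl2). Reactions ran at 30 °C with fluorescence logged every 2 min over 120 min. Apparent inhibition constants came from fitting rates to Morrison's tight-binding equation.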

[4] = molecular target: T4, Ba/F3 cells TPM3-TRKA (Homo sapiens, UniProt P04629); assay: Ba/F3 cell proliferation assay, TPM3-TRKA; format: cell-based; conditions: 72 hours, CellTiter-Glo, read-out: TPM3-NTRK1-wt IC50
T4 construct: host or cells: Ba/F3 (RIKEN), retroviral pMSCV-puro; the other entry of the earlier key: TPM3 (P06753, Tropomyosin alpha-3 chain)
T4 sequence (P04629 510-796 limits assumed): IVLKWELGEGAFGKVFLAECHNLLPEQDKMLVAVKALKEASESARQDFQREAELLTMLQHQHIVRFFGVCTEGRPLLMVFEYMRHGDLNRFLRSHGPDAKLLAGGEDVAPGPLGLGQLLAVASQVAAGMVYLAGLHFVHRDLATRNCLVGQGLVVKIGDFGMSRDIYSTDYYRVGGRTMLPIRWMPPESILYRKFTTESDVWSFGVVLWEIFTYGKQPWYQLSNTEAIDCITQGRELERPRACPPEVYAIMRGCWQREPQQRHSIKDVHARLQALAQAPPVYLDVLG
In short: as §1

[5] = tested on: TPM3-NTRK1-wt IC50 / primary target IC50 (e.g. CD74-ROS1-wt); assay: TRKA selectivity in Ba/F3 cells (TRKA potency divided by primary target potency); format: cell-based; conditions: for TPM3-NTRK1-wt/CD74-ROS1-G2032R selectivity ratio: TRKA potency / CD74-ROS1-G2032R potency; for TPM3-NTRK1-wt/CD74-ROS1-wt selectivity ratio: TRKA potency / CD74-ROS1-wt potency; for TPM3-NTRK1-wt/EML4-ALK-L1196M-G1202R selectivity ratio: TRKA potency / EML4-ALK-L1196M-G1202R potency; for TPM3-NTRK1-wt/EML4-ALK-wt selectivity ratio: TRKA potency / EML4-ALK-wt potency
Procedure: TRKA selectivity was calculated by dividing a compound's TRKA potency by its primary target potency (e.g. TPM3-NTRK1-wt IC50/CD74-ROS1-wt IC50). Compound selectivity can be interpreted by binning ratio values: bin A for very high selectivity, ratio >30-fold; bin B for high selectivity, ratio >10-fold; bin C for moderate selectivity, ratio ≥1; and bin D for low selectivity, ratio <1. […] (nd=not determined).

[6] = molecular target: T5, Ba/F3 cells CD74-ROS1 wild-type (wt) (Homo sapiens, UniProt P08922); assay: Ba/F3 cell proliferation assay, CD74-ROS1 wild-type; format: cell-based; conditions: 72 hours, CellTiter-Glo
T5 construct: fusion of the C-terminus of ROS1 with the N-terminus of various partner proteins; host or cells: Ba/F3 (RIKEN), retroviral pMSCV-puro; the other entry of the earlier key: CD74 (P04233, HLA class II histocompatibility antigen gamma chain)
T5 sequence (P08922 1883-2347 limits assumed): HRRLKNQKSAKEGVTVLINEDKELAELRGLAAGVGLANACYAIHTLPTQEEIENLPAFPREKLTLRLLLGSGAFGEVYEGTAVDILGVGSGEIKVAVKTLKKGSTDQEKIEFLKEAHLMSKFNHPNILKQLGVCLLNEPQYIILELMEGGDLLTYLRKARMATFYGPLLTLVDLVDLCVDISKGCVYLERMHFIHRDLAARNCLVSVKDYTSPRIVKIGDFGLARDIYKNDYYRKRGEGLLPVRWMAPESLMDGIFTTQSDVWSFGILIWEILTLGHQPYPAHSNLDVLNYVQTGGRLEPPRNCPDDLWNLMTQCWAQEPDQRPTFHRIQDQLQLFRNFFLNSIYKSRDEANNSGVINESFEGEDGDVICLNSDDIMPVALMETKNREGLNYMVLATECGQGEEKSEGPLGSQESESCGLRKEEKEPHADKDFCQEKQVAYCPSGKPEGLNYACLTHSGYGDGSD
In short: (§4)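 Viability read by CellTiter-Glo luminescence after 72 h exposure to 3-fold serial compound dilutions, four-parameter logistic fitting giving IC50.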

[7] = molecular target: T6, ALK-wt (Homo sapiens, UniProt Q9UM73); assay: Biochemical kinase assay, ALK-wt kinase domain; conditions: apparent inhibitory constant, Morrison equation; ATP 2 mM in substrate solution; read-out: ALK-wt Ki^app
T6 construct: purchased Carna 08-518
T6 sequence (Q9UM73 1116-1392 limits assumed): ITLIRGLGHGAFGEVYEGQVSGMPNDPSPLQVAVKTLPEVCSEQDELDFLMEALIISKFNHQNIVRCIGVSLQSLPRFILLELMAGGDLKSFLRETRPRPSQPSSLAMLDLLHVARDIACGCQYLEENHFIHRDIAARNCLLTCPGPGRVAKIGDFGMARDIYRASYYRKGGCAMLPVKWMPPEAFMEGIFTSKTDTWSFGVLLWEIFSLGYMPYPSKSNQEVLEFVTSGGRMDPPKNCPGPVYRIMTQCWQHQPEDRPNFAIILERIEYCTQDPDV
In short: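 Apparent Ki values come from fitting initial reaction rates against inhibitor concentration to the Morrison equation. Rates were taken from the linear phase of fluorogenic substrate phosphorylation (AQT0101 for ALK and ROS1, AQT0104 for TRKA; 26 μM in substrate solution with 2 mM ATP), monitored at 485 nm over 120 min at 30° C.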

[8] = molecular target: T7, ALK L1196M/G1202R (Homo sapiens, UniProt Q9UM73, G1202R/L1196M); assay: Biochemical kinase assay, ALK L1196M/G1202R kinase domain; conditions: apparent inhibitory constant, Morrison equation; ATP 2 mM in substrate solution; read-out: ALK-L1196M-G1202R Ki^app
T7 construct: purchased SignalChem A19-12NG
T7 sequence (Q9UM73 1116-1392 L1196M/G1202R limits assumed): as the sequence (Q9UM73 1116-1392 limits assumed) above, with L81M, G87R counted along it
In short: as §2

[9] = molecular target: T8, Ba/F3 cells CD74-ROS1 G2032R (Homo sapiens, UniProt P08922, G2032R); assay: Ba/F3 cell proliferation assay, CD74-ROS1 G2032R; format: cell-based; conditions: 72 hours, CellTiter-Glo
T8 construct: fusion of the C-terminus of ROS1 with the N-terminus of various partner proteins; host or cells: Ba/F3 (RIKEN), retroviral pMSCV-puro; the other entry of the earlier key: CD74 (P04233, HLA class II histocompatibility antigen gamma chain)
T8 sequence (P08922 1883-2347 G2032R limits assumed): as the sequence (P08922 1883-2347 limits assumed) above, with G150R counted along it
In short: as §4

[10] = molecular target: T9, ROS1-wt (Homo sapiens, UniProt P08922); assay: Biochemical kinase assay, ROS1-wt kinase domain; conditions: apparent inhibitory constant, Morrison equation; ATP 2 mM in substrate solution; read-out: ROS1-wt Ki^app
T9 construct: purchased Carna 08-163
T9 sequence (P08922 1945-2222 limits assumed): as the sequence (P08922 1945-2222 G2032R limits assumed) above, with R88G counted along it
In short: as §3

[11] = molecular target: T10, Ba/F3 cells EML4-ALK wt (variant 1) (Homo sapiens, UniProt Q9UM73); assay: Ba/F3 cell proliferation assay, EML4-ALK wt (variant 1); format: cell-based; conditions: 72 hours, CellTiter-Glo
T10 construct: echinoderm microtubule-associated protein-like 4 (EML4) gene and the ALK tyrosine kinase domain; host or cells: Ba/F3 (RIKEN), retroviral pMSCV-puro; the other entry of the earlier key: EML4 (Q9HC35, Echinoderm microtubule-associated protein-like 4)
T10 sequence (Q9UM73 with tags, fused parts or gaps): as the sequence (Q9UM73 with tags, fused parts or gaps L1196M/G1202R) above, with M635L, R641G counted along it
In short: as §1

C[C@H]1Oc2cc(cnc2N)-c2c(C#N)ncn2Cc2ncccc2-c2ccc(F)cc21 [Example 19, (20R)-23-amino-17-fluoro-20-methyl-21-oxa-4,6,9,24-tetraazapentacyclo[20.3.1.0^3,^6.0^8,^13.0^14,^19]hexacosa-1(25),2,4,8(13),9,11,14,16,18,22(26),23-undecaene-3-carbonitrile]
IC50 [1]: 0.1 to 50 nM | Ki [2]: > 500 nM | Ki [3]: < 50 nM | IC50 [4]: > 500 nM | TPM3-NTRK1-wt/CD74-ROS1-G2032R selectivity ratio [5]: A (bin A for very high selectivity, ratio >30-fold) | TPM3-NTRK1-wt/CD74-ROS1-wt selectivity ratio [5]: A (bin A for very high selectivity, ratio >30-fold) | TPM3-NTRK1-wt/EML4-ALK-L1196M-G1202R selectivity ratio [5]: A (bin A for very high selectivity, ratio >30-fold) | TPM3-NTRK1-wt/EML4-ALK-wt selectivity ratio [5]: A (bin A for very high selectivity, ratio >30-fold) | IC50 [6]: 0.1 to 50 nM | Ki [7]: < 50 nM | Ki [8]: < 50 nM | IC50 [9]: 0.1 to 50 nM | Ki [10]: < 50 nM | IC50 [11]: 0.1 to 50 nM

C[C@H]1Oc2cc(cnc2N)-c2c(cnn2CC2CC2)Cc2nn(C)cc2-c2ccc(F)cc21 [Example 61, (19R)-3-(cyclopropylmetbyl)-16-fluoro-10,19-dimethyl-20-oxa-3,4,9,10,23-pentaazapentacyclo[19.3.1.0^2,^6.0^8,^12.0^13,^18]pentacosa-1(24),2(6),4,8,11,13,15,17,21(25),22-decaen-22-amine]
IC50 [1]: 0.1 to 50 nM | Ki [2]: > 500 nM | Ki [3]: < 50 nM | IC50 [4]: > 500 nM | TPM3-NTRK1-wt/CD74-ROS1-G2032R selectivity ratio [5]: A (bin A for very high selectivity, ratio >30-fold) | TPM3-NTRK1-wt/CD74-ROS1-wt selectivity ratio [5]: A (bin A for very high selectivity, ratio >30-fold) | TPM3-NTRK1-wt/EML4-ALK-L1196M-G1202R selectivity ratio [5]: A (bin A for very high selectivity, ratio >30-fold) | TPM3-NTRK1-wt/EML4-ALK-wt selectivity ratio [5]: A (bin A for very high selectivity, ratio >30-fold) | IC50 [6]: 0.1 to 50 nM | Ki [7]: < 50 nM | Ki [8]: < 50 nM | IC50 [9]: 0.1 to 50 nM | Ki [10]: < 50 nM | IC50 [11]: 0.1 to 50 nM

Cc1nn(CC2CC2)c2c1Cn1ncnc1-c1ccc(F)cc1[C@@H](C)Oc1cc-2cnc1N [Example 64, (19R)-3-(cyclopropylmethyl)-16-fluoro-5,19-dimethyl-20-oxa-3,4,8,9,11,23-hexaazapentacyclo[19.3.1.0^2,^6.0^8,^12.0^13,^18]pentacosa-1(24),2(6),4,9,11,13,15,17,21(25),22-decaen-22-amine]
IC50 [1]: 50 to 500 nM | Ki [2]: > 500 nM | Ki [3]: < 50 nM | IC50 [4]: > 500 nM | TPM3-NTRK1-wt/CD74-ROS1-G2032R selectivity ratio [5]: A (bin A for very high selectivity, ratio >30-fold) | TPM3-NTRK1-wt/CD74-ROS1-wt selectivity ratio [5]: A (bin A for very high selectivity, ratio >30-fold) | TPM3-NTRK1-wt/EML4-ALK-L1196M-G1202R selectivity ratio [5]: A (bin A for very high selectivity, ratio >30-fold) | TPM3-NTRK1-wt/EML4-ALK-wt selectivity ratio [5]: A (bin A for very high selectivity, ratio >30-fold) | IC50 [6]: 0.1 to 50 nM | Ki [7]: < 50 nM | Ki [8]: < 50 nM | IC50 [9]: 0.1 to 50 nM | Ki [10]: < 50 nM | IC50 [11]: 0.1 to 50 nM

C[C@H]1Oc2cc(cnc2N)-c2c(C#N)noc2Cn2nccc2-c2ccc(F)cc21 [Example 20, (19R)-22-amino-16-fluoro-19-methyl-5,20-dioxa-4,8,9,23-tetraazapentacyclo[19.3.1.0^2,^6.0^8,^12.0^13,^18]pentacosa-1(24),2(6),3,9,11,13(18), 4,16,21 (25),22-decaene-3-carbonitrile]
IC50 [1]: > 500 nM | Ki [2]: > 500 nM | Ki [3]: 50 to 500 nM | IC50 [4]: > 500 nM | TPM3-NTRK1-wt/CD74-ROS1-G2032R selectivity ratio [5]: A (bin A for very high selectivity, ratio >30-fold) | TPM3-NTRK1-wt/CD74-ROS1-wt selectivity ratio [5]: A (bin A for very high selectivity, ratio >30-fold) | TPM3-NTRK1-wt/EML4-ALK-L1196M-G1202R selectivity ratio [5]: C (bin C for moderate selectivity, ratio ≥1) | TPM3-NTRK1-wt/EML4-ALK-wt selectivity ratio [5]: A (bin A for very high selectivity, ratio >30-fold) | IC50 [6]: 0.1 to 50 nM | Ki [7]: < 50 nM | Ki [8]: 50 to 500 nM | IC50 [9]: 50 to 500 nM | Ki [10]: < 50 nM | IC50 [11]: 50 to 500 nM

C[C@H]1Oc2cc(cnc2N)-c2c(cnn2C(F)F)Cn2nccc2-c2ccc(F)cc21 [Example 12, (19R)-3-(difluoromethyl)-16-fluoro-19-methyl-20-oxa-3,4,8,9,23-pentaazapentacyclo[19.3.1.0^2,^6.0^8,^12.0^13,^18]pentacosa-1(24),2(6),4,9,11,13,15,17,21(25),22-decaen-22-amine]
IC50 [1]: > 500 nM | Ki [2]: > 500 nM | Ki [3]: 50 to 500 nM | IC50 [4]: > 500 nM | TPM3-NTRK1-wt/CD74-ROS1-G2032R selectivity ratio [5]: A (bin A for very high selectivity, ratio >30-fold) | TPM3-NTRK1-wt/CD74-ROS1-wt selectivity ratio [5]: A (bin A for very high selectivity, ratio >30-fold) | TPM3-NTRK1-wt/EML4-ALK-L1196M-G1202R selectivity ratio [5]: C (bin C for moderate selectivity, ratio ≥1) | TPM3-NTRK1-wt/EML4-ALK-wt selectivity ratio [5]: A (bin A for very high selectivity, ratio >30-fold) | IC50 [6]: 0.1 to 50 nM | Ki [7]: < 50 nM | Ki [8]: 50 to 500 nM | IC50 [9]: 0.1 to 50 nM | Ki [10]: < 50 nM | IC50 [11]: 50 to 500 nM
